Data published in patent publication US20100227827A1, “METHOD OF INCREASING TRYPTOPHAN AND NICOTINAMIDE LEVELS IN VIVO” (priority 2006, published 2010).
Read-outs that look alike come from different tables or passages of the source.

Key:
[1] = Urinary quinic acid, hippuric acid, tryptophan and nicotinamide by HPLC; format: in vivo, human; conditions: for urinary tryptophan at start of treatment / urinary nicotinamide at start of treatment: 8 May 2006 and 15 May 2006; for dose excreted at 9 month: urine, oral, read-out: Dose recovery (excrete/dose), excreted as unmetabolized quinic acid
Method: Blood samples were collected by venal puncture using vacutainers (red top, 10 ml) usually in the morning (a.m.) after 12 hours of fasting. Serum was separated from the blood clot after setting 2 hr on the bench top before centrifugation for 10 min at 1500×g. Sera prepared in this manner were stored at +4° C. until biochemical analysis usually within 1-30 days of collection. Urine samples were collected as a random 50 ml sample in the A.M. during the treatment and follow-up (after treatment for 8 months) periods. Urine was spun at 5000×g for 15 min and the supernatant stored at +4° C. until analyzed within 1 month of collection. After the first analysis all samples were further stored at −20° C. and used for repeat determinations over time. Trial design for the clinical evaluation of Aqua Bimini™ (quinic acid ammonium chelate) was carried out at Lund University beginning Apr. 28, 2006. […] Repeat serum and urine samples were collected throughout the trial period and then pooled into groups for analysis as 6 weeks before (baseline), 4 weeks of intervention (treatment, 36 days) and 8 months dry-out (no treatment). Urine samples were mixed with 1:2:4 v/v/v of: aqueous urine:95% ethanol:ethyl acetate for 10 min with vigorous shaking. The ethyl acetate layer was allowed to separate with gravity at room temperature, and then it was removed with a pipette and evaporated with an air stream to dryness in a vacuum hood. In this manner 1-2 ml of urine were reconstituted in 0.2 ml water or ethanol which represented a 5-10 fold increase in concentration. […] The urine samples were diluted 1:2:4 v/v/v with ethanol and ethyl acetate, and then the ethyl acetate fraction dried, solubilized in 0.2 ml water and used for HPLC analyses with 20 μl injections directly onto a C18 80×4.6 mm. The mobile phase was 0.2% trifluoroacetic (TFA):methanol:acetonitrile (70:30):water in a ratio 8:8:84 (v/v/v). The UV detector was set at 215 nm, and quinic acid eluted with a retention of 0.97-1.05 min and nicotinamide at 2.6-2.9 min. The detection limit in urine was about 1.5 mg/ml for quinic acid and for nicotinamide it was 0.015 mg/ml. […] The urine samples were diluted 1:2:4 v/v/v with ethanol and ethyl acetate, and then the ethyl acetate fraction dried, solubilized in 0.2 ml water and used for HPLC analyses with 20 μl injections directly onto a C18 80×4.6 mm. The mobile phase was 70:30 v/v, 0.2% TFA: 30% methanol. The UV detector was set at 225 nm. Tryptophan eluted after 5.2-5.4 min and hippuric acid after 3.1-3.4 min.

[2] = Repeat daily oral doses, quinic acid analyzed in serum by HPLC; format: in vivo, human
Method: Trial design for the clinical evaluation of Aqua Bimini™ (quinic acid ammonium chelate) was carried out at Lund University beginning Apr. 28, 2006. Two Subjects identity code protected as HL and RP received Aqua Bimini™ at 1500 mg/day and 3000 mg/day, respectively for 4 consecutive weeks (36 days). Repeat serum and urine samples were collected throughout the trial period and then pooled into groups for analysis as 6 weeks before (baseline), 4 weeks of intervention (treatment, 36 days) and 8 months dry-out (no treatment).
Two human volunteers subject two and subject one ingested daily doses of 1500 mg per day or 3000 mg per day and serum samples collected on May 8, May 15, May 18, May 23, May 29, and June 1.
These samples were each analyzed for quinic acid content in 200 μl serum after precipitation with 2 M trichloroacetic acid (TCA). The column used for these experiments was a C18 80×4.6 mm. The mobile phase was 0.2% trifluoroacetic (TFA):methanol 85:15. The UV detector was set at 215 nm and quinic acid eluted with a retention time of 1.40-1.5 min. The sensitivity for detection of this method was about 1 mg quinic acid /ml serum or a detectable dose of 70 mg/kg in humans not 21 to 42 mg/kg as used herein in this study. Thus this protocol could assess if the quinic acid levels in serum would accumulate after repeated daily administration during a period of 4-5 weeks.

[3] = 3000 mg/day for 36 days (printed HL)
[4] = subject one (3000 mg/day), 1st 4 months no treatment, n=11
[5] = subject one (3000 mg/day), 2nd 4 months no treatment, n=3
[6] = subject one, 3000 mg/day QA (30 days), n=5
[7] = subject two (1500 mg/day), 1st 4 months no treatment, n=6
[8] = subject two (1500 mg/day), 2nd 4 months no treatment, n=6
[9] = subject two, 1500 mg/day QA (30 days), n=5

Structure (SMILES): O=C(O)[C@]1(O)C[C@@H](O)[C@@H](O)[C@H](O)C1 [Aqua Bimini™, quinic acid ammonium chelate]
- urinary tryptophan at start of treatment ([1]; 3000 mg/day (printed HL)): 9.32 µM
- Increase in urinary quinic acid (QA) metabolite (ratio), tryptophan [1, 3]: 2.44
- Increase tryptophan/increase thiols [1, 3]: 1.94
- average urinary tryptophan during treatment + follow-up [1, 3]: 22.7 µM
- Increase in urinary quinic acid (QA) metabolite (ratio), nicotinamide ([1]; HL 1500 mg/day for 36 days): 2.83
- Increase in urinary quinic acid (QA) metabolite (ratio), tryptophan ([1]; HL 1500 mg/day for 36 days): 0.99
- Increase nicotinamide/increase thiols ([1]; HL 1500 mg/day for 36 days): 2.32
- Increase tryptophan/increase thiols ([1]; HL 1500 mg/day for 36 days): 0.82
- average urinary nicotinamide during treatment + follow-up ([1]; HL 1500 mg/day for 36 days): 215 µM
- average urinary tryptophan during treatment + follow-up ([1]; HL 1500 mg/day for 36 days): 21.3 µM
- urinary nicotinamide at start of treatment ([1]; HL 1500 mg/day): 76 µM
- urinary tryptophan at start of treatment ([1]; HL 1500 mg/day): 19.3 µM
- Increase in urinary quinic acid (QA) metabolite (ratio), nicotinamide ([1]; RP 3000 mg/day for 36 days): 5.41
- Increase nicotinamide/increase thiols ([1]; RP 3000 mg/day for 36 days): 4.29
- average urinary nicotinamide during treatment + follow-up ([1]; RP 3000 mg/day for 36 days): 57.9 µM
- urinary nicotinamide at start of treatment ([1]; RP 3000 mg/day): 10.7 µM
- Dose recovery (excrete/dose), excreted as unmetabolized quinic acid ([1]; Subject 3000 mg/day, 9 month evaluation period): 59%
- Ratio of total dose excreted in 9 months ([1]; human, in vivo, 9 months): 2.86
- remaining dose absorbed as hippuric acid or further metabolized to other compounds ([1]; human, in vivo, 1 day): 29.7%
- dose excreted at 9 month ([1]; human, 1500 mg/day, Subject 1500 mg/day, 9 month evaluation period): 40%
- dose excreted at 9 month ([1]; human, 3000 mg/day, Subject 3000 mg/day, 9 month evaluation period): 56%
- Urinary excretion daily sample, Tryptophan (avg) ([1]; oral human dose 21-42 mg/kg (1500-3000 mg/day), 33 days, average over 9 months of RP and HL): Tryptophan. = 4.2 mg/liter^b
- urinary Nicotinamide [1, 4]: 71 ± 44 µM
- urinary Tryptophan [1, 4]: 22 ± 7 µM
- urinary Nicotinamide [1, 5]: 71 ± 63 µM
- urinary Tryptophan [1, 5]: 19 ± 6 µM
- urinary Nicotinamide ([1]; subject one (3000 mg/day), total sample mean, 9 months, n=19): 58 ± 46 µM
- urinary Tryptophan ([1]; subject one (3000 mg/day), total sample mean, 9 months, n=19, listed as QA): 19 ± 7 µM
- urinary Nicotinamide [1, 6]: 21 ± 16 µM
- urinary Tryptophan [1, 6]: 13 ± 5 µM
- urinary Nicotinamide [1, 7]: 453 ± 139 µM
- urinary Tryptophan [1, 7]: 30 ± 8 µM
- urinary Nicotinamide [1, 8]: 24 ± 7 µM
- urinary Tryptophan [1, 8]: 17 ± 7 µM
- urinary Nicotinamide ([1]; subject two (1500 mg/day), total sample mean, 9 months, n=17): 216 ± 210 µM
- urinary Tryptophan ([1]; subject two (1500 mg/day), total sample mean, 9 months, n=17, listed as QA): 22 ± 9 µM
- urinary Nicotinamide [1, 9]: 163 ± 91 µM
- urinary Tryptophan [1, 9]: 18 ± 5 µM
- ratio of nicotinamide/thiols ratios, 3000 versus 1500 mg per day ([1]; theoretical dose ratio 2.0): 1.85
- ratio of tryptophan/thiols ratios, 3000 versus 1500 mg per day ([1]; theoretical dose ratio 2.0): 2.4
- quinic acid in blood serum samples ([2]; 1500 mg or 3000 mg daily oral, 6 samples day 10 to day 37): No quinic acid was found
- quinic acid in human serum ([2]; efficacious dose 25 mg/kg in humans, HPLC detection limit 1 mg/kg): no quinic acid found
